Measured values reported in patent publication US4912092A, “Methods for increasing extracellular adenosine and for stabilizing mast cells” (The Regents of the University of California, priority 1987, dated 1990).

Columns and labels:
AMP deaminase = biological target: T1, AMP deaminase (Homo sapiens, UniProt Q01433); assay: Inhibition of AMP deaminase (14C-AMP to 14C-IMP conversion); assay type: biochemical
T1 construct: endogenous in cells
T1 sequence (Q01433 1-825): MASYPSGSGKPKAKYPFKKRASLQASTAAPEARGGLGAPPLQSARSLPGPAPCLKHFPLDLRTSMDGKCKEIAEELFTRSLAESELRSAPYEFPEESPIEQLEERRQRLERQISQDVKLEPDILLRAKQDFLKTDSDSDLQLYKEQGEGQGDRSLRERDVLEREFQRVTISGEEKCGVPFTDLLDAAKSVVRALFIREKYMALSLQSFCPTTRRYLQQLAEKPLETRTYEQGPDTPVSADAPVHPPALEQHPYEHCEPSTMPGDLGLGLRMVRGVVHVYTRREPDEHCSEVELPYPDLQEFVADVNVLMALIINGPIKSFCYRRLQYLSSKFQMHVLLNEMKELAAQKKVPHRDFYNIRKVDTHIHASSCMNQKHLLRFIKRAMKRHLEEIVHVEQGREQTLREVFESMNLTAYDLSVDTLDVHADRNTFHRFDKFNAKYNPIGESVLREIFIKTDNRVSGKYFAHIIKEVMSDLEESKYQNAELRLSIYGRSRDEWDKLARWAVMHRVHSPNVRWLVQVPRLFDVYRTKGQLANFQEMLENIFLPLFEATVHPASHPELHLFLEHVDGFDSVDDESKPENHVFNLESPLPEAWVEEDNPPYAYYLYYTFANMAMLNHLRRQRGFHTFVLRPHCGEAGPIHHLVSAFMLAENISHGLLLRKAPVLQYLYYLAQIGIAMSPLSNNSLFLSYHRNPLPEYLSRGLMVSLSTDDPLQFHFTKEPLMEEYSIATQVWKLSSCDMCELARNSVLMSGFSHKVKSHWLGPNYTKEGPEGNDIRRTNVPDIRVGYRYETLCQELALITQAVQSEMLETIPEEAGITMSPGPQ
Experimental: The phosphorylated forms are referred to as AICA ribotide and ribavirin monophosphate, respectively. Using 200 μM of each ribotide, AMP deaminase was inhibited 38% and 54%, respectively.

[1] = system: granulocytes and endothelial cells; assay: Granulocyte/endothelial cell interaction, intravital microscopy of mesentery microvessels; assay type: in vivo, rat; settings: superfusion with 20 μM, approximately 2 μM in the vessel
Experimental: The parameter measured was the fracture stress between the two cell types.
These studies were performed by intravital microscopy filming of granulocytes in rat mesentary microvessels. The rolling velocity of granulocytes compared to the streaming velocity of red cells was calculated before and after the administration of adenosine.

[2] = system: HPRT- neuroblastoma cells; assay: Adenosine excretion by ionophore-stimulated HPRT- neuroblastoma cells; assay type: cell-based; settings: pretreatment
Experimental: (§1) The history and properties of the cell line have been described by Hershfield et al. in Science, Vol. 197, p. 1284, 1977.
(§2) Catabolism of cellular ATP stores was stimulated by adding either 2-deoxyglucose or a calcium ionophore. At various times, the amount of adenosine released by the cells into the supernatant, or the amount of nucleotides remaining in the cells, was determined by mixing 30 μl of chilled 4.4N perchloric acid with 300 μl of supernatants, or by adding 300 μl of chilled 0.4N perchloric acid to the cells collected as pellets and centrifuging the mixtures at 500×G for 10 minutes at 4° C. […] 1245, 1975. Following centrifugation at 1500×G for three minutes at 4° C., the aqueous phase is removed and frozen at -20° C. until assayed for adenosine, inosine, or for nucleotides. Adenosine was evaluated isocratically on a C-18 microBondapak reverse phase column equilibrated with 4 millimolar potassium phosphate, (pH 3.4):acetonitrile 60% in water (95:5 v/v) buffer. Adenosine elutes at 8-10 minutes, and its identity was confirmed by its sensitivity to adenosine deaminase and by spiking with adenosine standards. The extracted samples from the cell pellet were analyzed for nucleotides by high pressure liquid chromatography on a Whatman Partisil-10 (SAX) column equilibrated with 10 millimolar potassium phosphate, pH 3.78, and eluted with a linear gradient to a 0.25 molar potassium phosphate, 0.5 molar KCl, pH 3.45. […] Peaks were quantitated by comparison with high pressure liquid chromatography analysis of suitable standards.
To induce ATP catabolism, the growth medium was replaced by medium containing micromolar amounts of the calcium ionophore A23187 and 1.0 μM deoxycoformycin.

[3] = system: Mouse bone marrow-derived mast cells; assay type: cell-based
Experimental: By preventing mast cell degranulation, it is possible to prevent or control a patient's allergic response. Bone marrow obtained from Balb/C mice femurs was cultured in a 1:1 mixture of Razin media and conditioned media, produced by co-culturing splenocytes from C57B1/6J and C3H mice in the presence of Concanavalin A as described by Razin et al. in the Proc. Natl. Acad. Sci. USA 28: 2559-2561, 1981. After weekly passaging and at least 15 days in tissue culture, the resulting cells were 90% pure mast cells and 95% viable as assessed by Trypan blue exclusion. Cells exposed to ribavirin in culture were washed three times prior to use in experiments. Parallel cultures of cells grown in media alone were used as controls for pharmacologically manipulated mast cells. Cell growth was assessed by counting cells at particular time points and comparing actual numbers of ribavirin-treated cells to numbers of cells grown in media alone.
β-hexosaminidase was chosen as a representative granule-associated, preformed mast cell mediator because it is easily quantitated, and its release nearly identically parallels that of histamine. Mouse bone marrow-derived mast cells were centrifuged at 200×g for 5 minutes, washed three times in Tyrode's buffer lacking divalent cations, sensitized for 30 minutes at 37° C. with anti-DNP ([…]) IgE (1 μg/10^6 cells) and challenged with either DNP-BSA antigen (175 ng/3×10^5 cells) or A23187 (10 μg/ml/3×10^5 cells) in 400 μl of complete Tyrode's buffer for 10 minutes at 37° C. Reaction mixtures were centrifuged at 200×g for 10 minutes, and supernatant and pellet β-hexosaminidase concentrations were assayed by the hydrolysis of p-nitrophenyl-β-D-glucosamide as described in Schwartz et al. in J. Immunol. […] Spontaneous β-hexosaminidase release was determined in unchallenged cells. The net % of β-hexosaminidase released is defined as follows: [formula] where [β-hex] is β-hexosaminidase and super. is supernatant. When exogenous adenosine was present in reaction mixtures, it was added simultaneously with the secretagogue.

[4] = system: human splenic lymphoblast cell line (WI-L2); assay: Adenosine excretion by human lymphoblasts during ATP breakdown (2-deoxyglucose); assay type: cell-based; settings: three-hour preincubation and four-hour incubation during 2-deoxyglucose treatment (FIGS. 8, 9)
Experimental: as §1, §2
Cells were grown to about 0.5×10^6 cells/ml (mid-log phase) in FIG. 2 and to about 1.0×10^6 cells/ml (early stationary phase) in FIGS. 7-9.

## NC(=O)c1ncn([C@@H]2O[C@H](COP(=O)(O)O)[C@@H](O)[C@H]2O)c1N [AICA ribotide]
AMP deaminase; read-out: AMP deaminase inhibited
  inhibition at 200 µM: 38%

## Nc1ncnc2c1ncn2[C@@H]1O[C@H](CO)[C@@H](O)[C@H]1O [Adenosine, 9-β-D-ribofuranosyladenine]
[1]
  decrease of fracture stress between granulocytes and endothelial cells: by a factor of two
  rolling velocity of granulocytes in microvessels: twofold increase

## NC(=O)c1ncn([C@@H]2O[C@H](COP(=O)(O)O)[C@@H](O)[C@H]2O)n1 [ribavirin monophosphate]
AMP deaminase; 200 μM ribotide, cytoplasmic lysates from a human lymphoblast line
  AMP deaminase inhibited: 54%

## NC(=O)c1ncn([C@@H]2O[C@H](CO)[C@@H](O)[C@H]2O)n1 [ribavirin, 1-β-D-ribofuranosyl-1H-1,2,4-triazole-3-carboxamide]
[2]
  correction of the twofold lower adenosine secretion of HPRT-deficient cells: can be corrected by pretreatment
[3]
  mast cell mediator content and cell viability: did not alter
[3]; 1 μM for six days
  preformed mediator release: inhibits mediator release significantly
[3]; 10 μM added at the time of mast cell stimulation
  β-hexosaminidase release: does not affect
[3]; 1, 10, or 20 μM for six days, A23187 challenge (FIG. 11)
  net β-hexosaminidase release versus controls: significantly less
[3]; three to seven days in 10 μM, washed, A23187 challenge (FIG. 10), p<0.05
  β-hexosaminidase release versus cells cultured in media alone: marked attenuation
[3]; unchallenged cells
  spontaneous release of β-hexosaminidase versus control cells: similar
[4]
  adenosine release from lymphoblasts: increased adenosine release
